Measured values from patent US20240024488A1, “COMPOUNDS AND USES THEREOF” (Foghorn Therapeutics Inc., priority 2020, published 2024).

Key:
HiBit-BRM fusion protein = target: T1, HiBit-BRM fusion protein (Homo sapiens, UniProt P51531); assay: HiBiT-BRM cell-based degradation assay (Nano-Glo HiBiT Lytic Detection, 24 h); conditions: HeLa cell line expressing HiBiT-BRM; for DC50: read-out: BRM HiBit Degradation IC50
T1 construct: expressed in transfected cells
Outline: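 HeLa cells stably expressing HiBiT-BRM were dosed with compounds (10-point 3-fold dilutions, 30 μM final top dose, duplicate) for 24 h. HiBiT signal was read by lytic LgBiT complementation luminescence. Percent degradation was normalised to DMSO (high control) and 2 μM of a reference BRM/BRG1 degrader (low control).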

[1] = target: T2, HiBit-BRG1 fusion protein (Homo sapiens, UniProt P51532); assay: HiBiT-BRG1 cell-based degradation assay (Nano-Glo HiBiT Lytic Detection, 24 h); conditions: HeLa cell line expressing HiBit-BRG1 and LgBit; for Dmax: read-out: BRG1 HiBit Degradation Maximum (%); for DC50: read-out: BRMG1 HiBit Degradation IC50
T2 construct: expressed in transfected cells
T2 sequence (P51532 whole entry, the tested form may be a part): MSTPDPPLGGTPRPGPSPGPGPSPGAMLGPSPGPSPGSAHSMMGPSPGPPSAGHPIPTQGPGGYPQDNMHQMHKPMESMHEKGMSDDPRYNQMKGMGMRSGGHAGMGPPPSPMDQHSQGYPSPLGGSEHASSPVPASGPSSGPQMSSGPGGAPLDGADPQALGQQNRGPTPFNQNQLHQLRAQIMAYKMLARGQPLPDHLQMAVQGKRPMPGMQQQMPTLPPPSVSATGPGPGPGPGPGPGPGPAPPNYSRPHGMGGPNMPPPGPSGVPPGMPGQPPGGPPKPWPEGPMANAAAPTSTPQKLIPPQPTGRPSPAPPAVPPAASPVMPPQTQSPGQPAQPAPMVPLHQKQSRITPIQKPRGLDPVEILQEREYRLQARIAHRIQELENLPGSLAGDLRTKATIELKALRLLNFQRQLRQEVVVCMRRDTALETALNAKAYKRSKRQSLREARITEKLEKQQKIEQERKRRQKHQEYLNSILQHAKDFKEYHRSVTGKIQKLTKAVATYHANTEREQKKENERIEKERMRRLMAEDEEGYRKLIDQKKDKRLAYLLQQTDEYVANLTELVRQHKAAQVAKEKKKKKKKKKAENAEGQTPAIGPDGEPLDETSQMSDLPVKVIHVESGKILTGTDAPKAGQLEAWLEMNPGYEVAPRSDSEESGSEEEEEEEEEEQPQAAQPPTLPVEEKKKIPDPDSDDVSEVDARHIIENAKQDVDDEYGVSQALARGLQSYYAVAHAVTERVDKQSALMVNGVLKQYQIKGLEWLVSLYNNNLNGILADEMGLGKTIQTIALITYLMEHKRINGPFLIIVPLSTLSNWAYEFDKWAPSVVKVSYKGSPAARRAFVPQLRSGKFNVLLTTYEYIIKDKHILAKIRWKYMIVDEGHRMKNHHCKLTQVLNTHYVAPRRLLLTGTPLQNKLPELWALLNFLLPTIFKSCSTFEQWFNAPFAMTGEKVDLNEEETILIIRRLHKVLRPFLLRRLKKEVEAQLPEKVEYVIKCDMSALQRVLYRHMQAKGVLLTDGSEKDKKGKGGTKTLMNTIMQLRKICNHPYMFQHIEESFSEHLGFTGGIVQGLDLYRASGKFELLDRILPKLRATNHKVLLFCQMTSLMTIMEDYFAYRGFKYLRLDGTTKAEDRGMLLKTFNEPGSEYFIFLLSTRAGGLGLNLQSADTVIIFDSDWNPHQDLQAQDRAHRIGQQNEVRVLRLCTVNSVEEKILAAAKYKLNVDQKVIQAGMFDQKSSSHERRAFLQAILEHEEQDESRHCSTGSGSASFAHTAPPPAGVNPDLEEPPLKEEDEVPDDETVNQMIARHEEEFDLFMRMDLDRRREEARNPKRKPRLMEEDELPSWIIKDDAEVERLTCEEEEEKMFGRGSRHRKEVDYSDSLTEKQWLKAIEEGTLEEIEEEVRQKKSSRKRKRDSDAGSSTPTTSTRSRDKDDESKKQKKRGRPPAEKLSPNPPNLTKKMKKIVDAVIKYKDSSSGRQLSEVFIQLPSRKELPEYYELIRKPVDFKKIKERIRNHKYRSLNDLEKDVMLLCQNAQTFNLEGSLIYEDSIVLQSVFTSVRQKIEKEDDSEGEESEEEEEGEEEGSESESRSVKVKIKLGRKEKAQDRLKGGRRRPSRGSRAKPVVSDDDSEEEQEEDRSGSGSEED
Outline: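 HeLa cells stably expressing HiBiT-BRG1 plus LgBit, 5000/well, treated 24 h, then lysed with Nano-Glo HiBiT lytic reagent and luminescence read. % degradation normalised between DMSO (high control) and 2 μM reference BRM/BRG1 degrader (low control).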

T1 sequence (P51531 whole entry, the tested form may be a part): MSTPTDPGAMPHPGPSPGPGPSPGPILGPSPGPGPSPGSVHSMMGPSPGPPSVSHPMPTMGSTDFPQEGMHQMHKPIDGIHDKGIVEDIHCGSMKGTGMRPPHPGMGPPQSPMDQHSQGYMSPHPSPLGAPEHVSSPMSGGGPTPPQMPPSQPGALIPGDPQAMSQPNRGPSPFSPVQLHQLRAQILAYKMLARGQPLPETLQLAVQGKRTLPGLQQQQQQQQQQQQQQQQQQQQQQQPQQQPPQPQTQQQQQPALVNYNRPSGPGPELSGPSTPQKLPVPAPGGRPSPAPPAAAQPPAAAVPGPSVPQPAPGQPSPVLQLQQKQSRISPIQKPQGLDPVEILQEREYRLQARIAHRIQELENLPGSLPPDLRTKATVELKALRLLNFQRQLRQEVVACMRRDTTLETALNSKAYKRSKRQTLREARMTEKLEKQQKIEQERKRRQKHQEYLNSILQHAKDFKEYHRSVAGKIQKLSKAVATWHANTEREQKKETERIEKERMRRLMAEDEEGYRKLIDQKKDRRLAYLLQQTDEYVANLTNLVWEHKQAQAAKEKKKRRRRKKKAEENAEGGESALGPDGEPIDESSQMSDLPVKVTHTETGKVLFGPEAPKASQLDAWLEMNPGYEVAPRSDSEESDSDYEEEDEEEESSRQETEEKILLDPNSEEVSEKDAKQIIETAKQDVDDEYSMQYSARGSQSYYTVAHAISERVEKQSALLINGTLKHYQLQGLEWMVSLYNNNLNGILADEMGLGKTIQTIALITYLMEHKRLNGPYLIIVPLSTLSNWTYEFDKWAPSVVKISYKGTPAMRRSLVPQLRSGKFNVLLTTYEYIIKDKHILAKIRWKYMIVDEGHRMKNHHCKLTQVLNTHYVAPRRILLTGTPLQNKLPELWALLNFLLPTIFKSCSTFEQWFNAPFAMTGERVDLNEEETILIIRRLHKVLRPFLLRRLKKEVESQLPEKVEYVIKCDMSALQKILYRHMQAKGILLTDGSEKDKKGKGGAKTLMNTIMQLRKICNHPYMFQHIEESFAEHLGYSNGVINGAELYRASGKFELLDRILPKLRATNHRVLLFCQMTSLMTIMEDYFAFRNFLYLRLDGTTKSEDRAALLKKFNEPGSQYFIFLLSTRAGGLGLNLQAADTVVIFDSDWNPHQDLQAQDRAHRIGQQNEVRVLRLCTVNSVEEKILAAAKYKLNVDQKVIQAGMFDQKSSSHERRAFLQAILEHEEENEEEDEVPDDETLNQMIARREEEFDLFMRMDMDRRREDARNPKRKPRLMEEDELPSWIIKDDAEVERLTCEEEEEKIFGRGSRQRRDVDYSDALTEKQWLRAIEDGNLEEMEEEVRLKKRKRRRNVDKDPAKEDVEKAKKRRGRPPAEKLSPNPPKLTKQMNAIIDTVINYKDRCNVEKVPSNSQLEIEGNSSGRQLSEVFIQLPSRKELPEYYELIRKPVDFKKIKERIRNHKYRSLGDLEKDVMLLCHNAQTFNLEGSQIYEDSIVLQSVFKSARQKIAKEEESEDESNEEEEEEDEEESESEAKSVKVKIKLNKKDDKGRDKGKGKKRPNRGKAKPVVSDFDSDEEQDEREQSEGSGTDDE

Row | SMILES | Dmax [1] | DC50 (HiBit-BRM fusion protein) | DC50 [1] | BRM HiBit Degradation Maximum (%) (HiBit-BRM fusion protein)
1 | Cc1ncsc1-c1ccc(CNC(=O)[C@@H]2C[C@@H](O)CN2C(=O)[C@@H](NC(=O)CCCCCNC(=O)[C@H]2CCc3[nH]c4nnc(-c5ccccc5O)cc4c3C2)C(C)(C)C)cc1 (racemic) [Compound 189, (S)-N-(6-(((S)-1-((2S,4R)-4-hydroxy-2-((4-(4-methylthiazol-5-yl)benzyl)carbamoyl)pyrrolidin-1-yl)-3,3-dimethyl-1-oxobutan-2-yl)amino)-6-oxohexyl)-3-(2-hydroxyphenyl)-6,7,8,9-tetrahydro-5H-pyridazino[3,4-b]indole-6-carboxamide] | < 50% | – | – | C (“C” indicates maximum degradation < 50%)
2 | Cc1ncsc1-c1ccc([C@H](C)NC(=O)[C@@H]2C[C@@H](O)CN2C(=O)[C@@H](c2cc(N3CCC(CN4CCc5[nH]c6nnc(-c7ccccc7O)cc6c5C4)CC3)no2)C(C)C)cc1 (racemic) [Compound 193, (2S,4R)-4-hydroxy-1-((R)-2-(3-(4-((3-(2-hydroxyphenyl)-5,7,8,9-tetrahydro-6H-pyrido [3′,4′:4,5]pyrrolo[2,3-c]pyridazin-6-yl)methyl)piperidin-1-yl)isoxazol-5-yl)-3-methylbutanoyl)-N-((S)-1-(4-(4-methylthiazol-5-yl)phenyl)ethyl)pyrrolidine-2-carboxamide] | > 50% | > 10 nM | > 100 nM | A (“A” indicates maximum degradation ≥ 75%)
3 | Cc1ncsc1-c1ccc([C@H](C)NC(=O)[C@@H]2C[C@@H](O)CN2C(=O)[C@@H](c2cc(OCC(=O)N3CCc4[nH]c5nnc(-c6ccccc6O)cc5c4C3)no2)C(C)C)cc1 (racemic) [Compound 194, (2S,4R)-4-hydroxy-1-((R)-2-(3-(2-(3-(2-hydroxyphenyl)-5,7,8,9-tetrahydro-6H-pyrido[3′,4′:4,5]pyrrolo[2,3-c]pyridazin-6-yl)-2-oxoethoxy)isoxazol-5-yl)-3-methylbutanoyl)-N-((S)-1-(4-(4-methylthiazol-5-yl)phenyl)ethyl)pyrrolidine-2-carboxamide] | < 50% | – | – | C (“C” indicates maximum degradation < 50%)
4 | Cc1ncsc1-c1ccc(CNC(=O)[C@@H]2C[C@@H](O)CN2C(=O)[C@@H](NC(=O)CCCCCNC(=O)[C@@H]2CCc3[nH]c4nnc(-c5ccccc5O)cc4c3C2)C(C)(C)C)cc1 (racemic) [Compound 195, (R)-N-(6-(((S)-1-((2S,4R)-4-hydroxy-2-((4-(4-methylthiazol-5-yl)benzyl)carbamoyl)pyrrolidin-1-yl)-3,3-dimethyl-1-oxobutan-2-yl)amino)-6-oxohexyl)-3-(2-hydroxyphenyl)-6,7,8,9-tetrahydro-5H-pyridazino[3,4-b]indole-6-carboxamide] | < 50% | > 100 nM | – | B (“B” indicates maximum degradation ≥ 50%)
5 | Cc1ncsc1-c1ccc([C@H](C)NC(=O)[C@@H]2C[C@@H](O)CN2C(=O)[C@@H](c2cc(N3CCN(Cc4cc5cc(-c6ccccc6O)nnc5[nH]4)CC3)no2)C(C)C)cc1 (racemic) [Compound 199, (2S,4R)-4-hydroxy-1-((R)-2-(3-(4-((3-(2-hydroxyphenyl)-7H-pyrrolo[2,3-c]pyridazin-6-yl)methyl)piperazin-1-yl)isoxazol-5-yl)-3-methylbutanoyl)-N-((S)-1-(4-(4-methylthiazol-5-yl)phenyl)ethyl)pyrrolidine-2-carboxamide] | < 50% | > 10 nM | – | A (“A” indicates maximum degradation ≥ 75%)
6 | Cc1ncsc1-c1ccc([C@H](C)NC(=O)[C@@H]2C[C@@H](O)CN2C(=O)C(c2cc(N3CCC(C(=O)N4CCc5[nH]c6nnc(-c7ccccc7O)cc6c5C4)CC3)no2)C(C)C)cc1 (mixture of isomers) [Compound 205, (2S,4R)-4-hydroxy-1-((R)-2-(3-(4-(3-(2-hydroxyphenyl)-6,7,8,9-tetrahydro-5H-pyrido[3′,4′:4,5]pyrrolo[2,3-c]pyridazine-6-carbonyl)piperidin-1-yl)isoxazol-5-yl)-3-methylbutanoyl)-N-((S)-1-(4-(4-methylthiazol-5-yl)phenyl)ethyl)pyrrolidine-2-carboxamide] | < 50% | – | – | C (“C” indicates maximum degradation < 50%)
7 | Cc1ncsc1-c1ccc([C@H](C)NC(=O)[C@@H]2C[C@@H](O)CN2C(=O)[C@@H](c2cc(OCCNCc3cc4cc(-c5ccccc5O)nnc4[nH]3)no2)C(C)C)cc1 (racemic) [Compound 212, (2S,4R)-4-hydroxy-1-((R)-2-(3-(2-(((3-(2-hydroxyphenyl)-7H-pyrrolo[2,3-c]pyridazin-6-yl)methyl)amino)ethoxy)isoxazol-5-yl)-3-methylbutanoyl)-N-((S)-1-(4-(4-methylthiazol-5-yl)phenyl)ethyl)pyrrolidine-2-carboxamide] | < 50% | > 100 nM | – | A (“A” indicates maximum degradation ≥ 75%)
8 | Cc1ncsc1-c1ccc([C@H](C)NC(=O)[C@@H]2C[C@@H](O)CN2C(=O)[C@@H](c2cc(OCCNCC34CC(c5cc6cc(-c7ccccc7O)nnc6[nH]5)(C3)C4)no2)C(C)C)cc1 (racemic) [Compound 213, (2S,4R)-4-hydroxy-1-((R)-2-(3-(2-(((3-(3-(2-hydroxyphenyl)-7H-pyrrolo[2,3-c]pyridazin-6-yl)bicyclo[1.1.1]pentan-1-yl)methyl)amino)ethoxy)isoxazol-5-yl)-3-methylbutanoyl)-N-((S)-1-(4-(4-methylthiazol-5-yl)phenyl)ethyl)pyrrolidine-2-carboxamide] | > 75% | > 10 nM | > 100 nM | A (“A” indicates maximum degradation ≥ 75%)

Now from value to molecule, other results behind:

Row | Dmax [1] | DC50 (HiBit-BRM fusion protein) | DC50 [1] | SMILES | BRM HiBit Degradation Maximum (%) (HiBit-BRM fusion protein)
9 | < 50% | – | – | Cc1ncsc1-c1ccc([C@H](C)NC(=O)[C@@H]2C[C@@H](O)CN2C(=O)[C@@H](c2cc(OCCN3CC(n4c(=O)[nH]c5nnc(-c6ccccc6O)cc54)C3)no2)C(C)C)cc1 (racemic) [Compound 206, (2S,4R)-4-hydroxy-1-[(2R)-2-[3-(2-{3-[3-(2-hydroxyphenyl)-6-oxo-7H-imidazo[4,5-c]pyridazin-5-yl]azetidin-1-yl}ethoxy)-1,2-oxazol-5-yl]-3-methylbutanoyl]-N-[(1S)-1-[4-(4-methyl-1,3-thiazol-5-yl)phenyl]ethyl]pyrrolidine-2-carboxamide] | C (“C” indicates maximum degradation < 50%)
10 | < 50% | > 10 nM | – | Cc1ncsc1-c1ccc([C@H](C)NC(=O)[C@@H]2C[C@@H](O)CN2C(=O)[C@@H](c2cc(OCCN3CCN(Cc4cc5cc(-c6ccccc6O)nnc5[nH]4)CC3)no2)C(C)C)cc1 (racemic) [Compound 208, (2S,4R)-4-hydroxy-1-((R)-2-(3-(2-(4-((3-(2-hydroxyphenyl)-7H-pyrrolo[2,3-c]pyridazin-6-yl)methyl)piperazin-1-yl)ethoxy)isoxazol-5-yl)-3-methylbutanoyl)-N-((S)-1-(4-(4-methylthiazol-5-yl)phenyl)ethyl)pyrrolidine-2-carboxamide] | A (“A” indicates maximum degradation ≥ 75%)
11 | < 50% | – | – | Cc1ncsc1-c1ccc([C@H](C)NC(=O)[C@@H]2C[C@@H](O)CN2C(=O)[C@@H](c2cc(OCCN3C[C@@H]4[C@H](C3)[C@H]4c3c[nH]c4nnc(-c5ccccc5O)cc34)no2)C(C)C)cc1 (racemic) [Compound 210, (2S,4R)-4-hydroxy-1-((R)-2-(3-(2-((1R,5S,6S)-6-(3-(2-hydroxyphenyl)-7H-pyrrolo[2,3-c]pyridazin-5-yl)-3-azabicyclo[3.1.0]hexan-3-yl)ethoxy)isoxazol-5-yl)-3-methylbutanoyl)-N-((S)-1-(4-(4-methylthiazol-5-yl)phenyl)ethyl)pyrrolidine-2-carboxamide] | C (“C” indicates maximum degradation < 50%)
12 | > 75% | > 10 nM | > 100 nM | Cc1ncsc1-c1ccc([C@H](C)NC(=O)[C@@H]2C[C@@H](O)CN2C(=O)[C@@H](c2cc(OCCCN3CC4(CC(c5c[nH]c6nnc(-c7ccccc7O)cc56)C4)C3)no2)C(C)C)cc1 (racemic) [Compound 211, (2S,4R)-4-hydroxy-1-((R)-2-(3-(3-(6-(3-(2-hydroxyphenyl)-7H-pyrrolo[2,3-c]pyridazin-5-yl)-2-azaspiro[3.3]heptan-2-yl)propoxy)isoxazol-5-yl)-3-methylbutanoyl)-N-((S)-1-(4-(4-methylthiazol-5-yl)phenyl)ethyl)pyrrolidine-2-carboxamide] | A (“A” indicates maximum degradation ≥ 75%)
13 | > 75% | > 100 nM | > 100 nM | Cc1ncsc1-c1ccc([C@H](C)NC(=O)[C@@H]2C[C@@H](O)CN2C(=O)[C@@H](c2cc(OCCCN3CCN(Cc4cc5cc(-c6ccccc6O)nnc5[nH]4)CC3)no2)C(C)C)cc1 (racemic) [Compound 214, (2S,4R)-4-hydroxy-1-((R)-2-(3-(3-(4-((3-(2-hydroxyphenyl)-7H-pyrrolo[2,3-c]pyridazin-6-yl)methyl)piperazin-1-yl)propoxy)isoxazol-5-yl)-3-methylbutanoyl)-N-((S)-1-(4-(4-methylthiazol-5-yl)phenyl)ethyl)pyrrolidine-2-carboxamide] | A (“A” indicates maximum degradation ≥ 75%)
